The structures appear in SMILES notation.

For orientation: EC50 means the concentration needed to bring the measured effect to its halfway point.

The nature of the assay: Agonist activity at STING in human wild-type THP1-Dual cells co-expressing ISRE reporter assessed as IRF-mediated immune response incubated for 24 hrs by QUANTI Luc based microplate reader method.
`CCn1nc(C)cc1C(=O)/N=c1\[nH]c2cc(C(N)=O)ccc2n1CCCCn1/c(=N/C(=O)c2cc(C)nn2CC)[nH]c2cc(C(N)=O)ccc21`: the EC50 was 1.23 µM.

Take `CCn1nc(C)cc1C(=O)Nc1nc2cc(C(N)=O)cc(OC)c2n1CCCCNC(=O)OC(C)(C)C`: the EC50 came to 0.804 µM.

Consider `CCn1nc(C)cc1C(=O)Nc1nc2cc(C(N)=O)cc(OC)c2n1C/C=C/Cn1c(NC(=O)c2cc(C)nn2CC)nc2cc(C(N)=O)cc(OCCCNC(=O)OC(C)(C)C)c21`, for which the concentration for a half-maximal effect (EC50) was 0.000354 µM.

Take `CCn1nc(C)cc1C(=O)Nc1nc2cc(C(N)=O)cc(OCCCNC(=O)OC(C)(C)C)c2n1C`: the EC50 was 1.66 µM.

In the case of `CCn1nc(C)cc1C(=O)Nc1nc2cc(C(N)=O)ccc2n1CCCCCNC(=O)OC(C)(C)C`, the EC50 turned out to be 1.69 µM.

Take `CCn1nc(C)cc1C(=O)NCCCOc1cc(C(N)=O)cc2nc(NC(=O)c3cc(C)nn3CC)n(C/C=C/Cn3c(NC(=O)c4cc(C)nn4CC)nc4cc(C(N)=O)cc(OC)c43)c12`: the EC50 turned out to be 4e-06 µM.

Consider `CCn1nc(C)cc1C(=O)Nc1nc2cc(C(N)=O)cc(OC)c2n1C/C=C/CNC(=O)OC(C)(C)C`, for which the EC50 stood at 4.6 µM.

Turning to `CCn1nc(C)cc1C(=O)NCCCOc1cc(C(N)=O)cc2nc(NC(=O)c3cc(C)nn3CC)n(C)c12`, the concentration giving a half-maximal response (EC50) worked out at 6.22 µM.

For `CCn1nc(C)cc1C(=O)Nc1nc2cc(C(N)=O)ccc2n1CCCCNC(=O)OC(C)(C)C`, the EC50 came to 6.55 µM.

For `CCn1nc(C)cc1C(=O)NCCCCn1c(NC(=O)c2cc(C)nn2CC)nc2cc(C(N)=O)ccc21`, the half-maximal effective concentration (EC50) is 9.12 µM.

`Cn1cc(C(=O)Nc2nc3cc(C(N)=O)ccc3n2CCCCn2c(NC(=O)c3cn(C)nc3C(F)(F)F)nc3cc(C(N)=O)ccc32)c(C(F)(F)F)n1`: the EC50 was 17.6 µM.

Consider `CCn1nc(C)cc1C(=O)Nc1nc2cc(C(N)=O)ccc2n1CCCCNC(=O)c1ccccc1`, for which the EC50 stood at 28.6 µM.

For `CCn1nc(C)cc1C(=O)Nc1nc2cc(C(N)=O)cc(OCCCN)c2n1C`, the half-maximal effective concentration (EC50) turned out to be 29.8 µM.

For the molecule `CCn1nc(C)cc1C(=O)Nc1nc2cc(C(N)=O)ccc2n1CCCCNC(=O)c1cc(C)nn1C`, the concentration for a half-maximal effect (EC50) came out at 30.1 µM.

On to `CCn1nc(C)cc1C(=O)NCCCn1c(NC(=O)c2cc(C)nn2CC)nc2cc(C(N)=O)ccc21`, for which the EC50 came out at 39.1 µM.

For `CCn1nc(C)cc1C(=O)Nc1nc2cc(C(N)=O)ccc2n1CCCNC(=O)OC(C)(C)C`, the half-maximal effective concentration (EC50) came to 48.6 µM.

In the case of `CCn1nc(C)cc1C(=O)Nc1nc2cc(C(N)=O)ccc2n1CCCCNC(=O)C(C)(C)C`, the EC50 was determined as 51.1 µM.

As to `CCn1nc(C)cc1C(=O)Nc1nc2cc(C(N)=O)cc(OC)c2n1C/C=C/Cn1c(NC(=O)c2cc(C)nn2CC)nc2cc(C(N)=O)cc(OCCCN)c21`, the concentration giving a half-maximal response (EC50) turned out to be 0.00162 µM.

Source of the values: BindingDB's records for PubMed 35315650 (Korea Research Institute of Chemical Technology, 2022).
